Reference: patent US11447503B2, “Pyridine carbamates and their use as GLUN2B receptor modulators” (JANSSEN PHARMACEUTICA NV, priority 2019, dated 2022)

What follows are molecules tested against human GluN1/GluN2B NMDA receptors (Homo sapiens, UniProt Q05586+Q13224) (assay: Cell-based calcium flux (FLIPR) assay on cloned human GluN1/GluN2B ion channels expressed in mammalian cells). Details: standard assay; glutamate ~EC40, 10 μM glycine; stable Tet-On cell line.
Summary of the method: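 Tet-On-induced stable cells expressing human GluN1/GluN2B, Calcium 5 dye. Compounds preincubated 5 min (agonist check), then glutamate at ~EC40 plus 10 μM glycine added for 5 min; Mg2+ and buffer composition differ between standard and HTS formats. FLIPR Tetra fluorescence normalised to control wells; (+)MK-801 as antagonist control.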

Sequence of human GluN1/GluN2B NMDA receptors (Q13224 27-1484, other chains not shown): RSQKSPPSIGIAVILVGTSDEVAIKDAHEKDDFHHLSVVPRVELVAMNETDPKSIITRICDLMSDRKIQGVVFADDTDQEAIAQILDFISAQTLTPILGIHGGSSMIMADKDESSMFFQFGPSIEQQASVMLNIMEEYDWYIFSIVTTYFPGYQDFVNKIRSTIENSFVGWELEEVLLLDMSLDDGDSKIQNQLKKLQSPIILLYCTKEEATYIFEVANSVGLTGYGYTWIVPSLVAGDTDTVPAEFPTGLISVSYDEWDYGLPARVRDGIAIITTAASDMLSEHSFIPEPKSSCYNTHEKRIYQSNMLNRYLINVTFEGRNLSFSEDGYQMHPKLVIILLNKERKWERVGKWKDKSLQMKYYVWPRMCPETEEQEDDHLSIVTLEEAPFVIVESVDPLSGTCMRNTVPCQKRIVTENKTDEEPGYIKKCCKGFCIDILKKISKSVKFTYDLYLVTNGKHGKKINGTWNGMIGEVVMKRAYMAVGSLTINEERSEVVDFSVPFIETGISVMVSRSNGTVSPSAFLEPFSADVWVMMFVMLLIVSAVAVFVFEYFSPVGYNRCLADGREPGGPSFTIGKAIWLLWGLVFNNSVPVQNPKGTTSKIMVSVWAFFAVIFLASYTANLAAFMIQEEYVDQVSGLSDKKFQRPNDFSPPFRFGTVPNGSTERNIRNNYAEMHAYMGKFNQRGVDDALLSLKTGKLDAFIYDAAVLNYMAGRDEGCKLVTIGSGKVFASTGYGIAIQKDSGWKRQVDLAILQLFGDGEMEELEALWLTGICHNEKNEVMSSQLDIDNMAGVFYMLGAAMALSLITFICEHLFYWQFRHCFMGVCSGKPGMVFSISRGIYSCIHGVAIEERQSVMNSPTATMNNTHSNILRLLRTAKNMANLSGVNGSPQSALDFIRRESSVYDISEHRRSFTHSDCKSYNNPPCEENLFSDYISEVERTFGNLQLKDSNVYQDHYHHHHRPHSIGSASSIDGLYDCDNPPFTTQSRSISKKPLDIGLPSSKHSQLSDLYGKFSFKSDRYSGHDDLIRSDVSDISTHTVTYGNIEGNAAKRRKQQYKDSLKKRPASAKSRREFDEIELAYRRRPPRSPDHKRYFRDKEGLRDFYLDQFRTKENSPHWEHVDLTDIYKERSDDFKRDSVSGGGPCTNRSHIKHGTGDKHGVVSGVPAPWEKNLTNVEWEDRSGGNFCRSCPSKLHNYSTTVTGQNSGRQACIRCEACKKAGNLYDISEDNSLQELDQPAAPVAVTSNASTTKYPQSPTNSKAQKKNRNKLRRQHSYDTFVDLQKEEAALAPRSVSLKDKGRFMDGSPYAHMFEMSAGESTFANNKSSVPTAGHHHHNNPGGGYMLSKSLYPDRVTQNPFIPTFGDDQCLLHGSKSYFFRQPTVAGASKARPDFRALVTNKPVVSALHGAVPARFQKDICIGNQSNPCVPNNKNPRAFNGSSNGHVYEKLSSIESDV

| SMILES | IC50 [nM] |
| --- | --- |
| O=C1OCCN1Cc1cc(-c2ccc(F)c(OC(F)F)c2)cnc1F [Example 150, 3-((5-(3-(Difluoromethoxy)-4-fluorophenyl)-2-fluoropyridin-3-yl)methyl)oxazolidin-2-one] | 11 |
| O=C1OCCCN1Cc1cc(-c2ccc(F)c(OC(F)F)c2)cnc1F [Example 151, 3-((5-(3-(Difluoromethoxy)-4-fluorophenyl)-2-fluoropyridin-3-yl)methyl)-1,3-oxazinan-2-one] | 11 |
| Cc1ncc(-c2ccc(F)c(OC(F)F)c2)cc1CN1CC2(CCC2)OC1=O [Example 85, 6-[[5-[3-(Difluoromethoxy)-4-fluoro-phenyl]-2-methyl-3-pyridyl]methyl]-8-oxa-6-azaspiro[3.4]octan-7-one] | 107 |
| O=C1OCCN1Cc1cc(-c2ccc(F)c(OC(F)F)c2)cnc1C(F)F [Example 125, 3-[[5-[3-(Difluoromethoxy)-4-fluoro-phenyl]-2-(difluoromethyl)-3-pyridyl]methyl]oxazolidin-2-one] | 39 |
| Cc1ncc(-c2ccc(Cl)c(Cl)c2)cc1CN1CCCOC1=O [Example 73, 3-[[5-(3,4-Dichlorophenyl)-2-methyl-3-pyridyl]methyl]-1,3-oxazinan-2-one] | 19 |
| COc1ncc(-c2cccc(C(C)(F)F)c2)cc1CN1CCOC1=O [Example 111, 3-[[5-[3-(1,1-Difluoroethyl)phenyl]-2-methoxy-3-pyridyl]methyl]oxazolidin-2-one] | 47 |
| CC1CN(Cc2cncc(-c3ccc(F)c(OC(F)F)c3)c2)C(=O)O1 (single isomer, unassigned) [Example 7, (S*)-3-[[5-[3-(Difluoromethoxy)-4-fluoro-phenyl]-3-pyridyl]methyl]-5-methyl-oxazolidin-2-one] | 17 |
| C[C@H]1COC(=O)N1Cc1cc(-c2ccc(F)c(OC(F)F)c2)cnc1C(C)(F)F [Example 145, (4S)-3-[[2-(1,1-Difluoroethyl)-5-[3-(difluoromethoxy)-4-fluoro-phenyl]-3-pyridyl]methyl]-4-methyl-oxazolidin-2-one] | 492 |
| CC(C)[C@@H]1COC(=O)N1Cc1cncc(-c2ccc(F)c(OC(F)F)c2)c1 [Example 11, (4R)-3-[[5-[3-(Difluoromethoxy)-4-fluoro-phenyl]-3-pyridyl]methyl]-4-isopropyl-oxazolidin-2-one] | > 3000 |
| C[C@@H]1CN(Cc2cncc(-c3ccc(F)c(C(F)F)c3)c2)C(=O)O1 (single isomer, unassigned) [Example 28, (R*)-3-[[5-[3-(Difluoromethyl)-4-fluoro-phenyl]-3-pyridyl]methyl]-5-methyl-oxazolidin-2-one] | 14 |
| Cc1ncc(-c2ccc(F)c(OC(F)F)c2)cc1CN1C(=O)OCC1C (single isomer, unassigned) [Example 83, (S*)-3-[[5-[3-(Difluoromethoxy)-4-fluoro-phenyl]-2-methyl-3-pyridyl]methyl]-4-methyl-oxazolidin-2-one] | 30 |
| Cc1ncc(-c2cccc(Cl)c2)cc1CN1CCCOC1=O [Example 64, 3-[[5-(3-Chlorophenyl)-2-methyl-3-pyridyl]methyl]-1,3-oxazinan-2-one] | 406 |
| CC(C)C1CN(Cc2cncc(-c3ccc(F)c(C(F)F)c3)c2)C(=O)O1 (single isomer, unassigned) [Example 37, (S*)-3-[[5-[3-(Difluoromethyl)-4-fluoro-phenyl]-3-pyridyl]methyl]-5-isopropyl-oxazolidin-2-one] | 50 |
| COc1ncc(-c2ccc(F)c(Cl)c2)cc1CN1CCOC1=O [Example 108, 3-[[5-(3-Chloro-4-fluoro-phenyl)-2-methoxy-3-pyridyl]methyl]oxazolidin-2-one] | 32 |
| Cc1ncc(-c2cccc(OC(F)F)c2)cc1CN1CCCOC1=O [Example 63, 3-[[5-[3-(Difluoromethoxy)phenyl]-2-methyl-3-pyridyl]methyl]-1,3-oxazinan-2-one] | 174 |
| Cc1ncc(-c2ccc(F)c(C(F)F)c2)cc1CN1CC(C)(C)OC1=O [Example 93, 3-[[5-[3-(Difluoromethyl)-4-fluoro-phenyl]-2-methyl-3-pyridyl]methyl]-5,5-dimethyl-oxazolidin-2-one] | 526 |
| Cc1ncc(-c2ccc(F)cc2)cc1CN1CCCOC1=O [Example 68, 3-[[5-(4-Fluorophenyl)-2-methyl-3-pyridyl]methyl]-1,3-oxazinan-2-one] | > 3000 |
| Cc1ncc(-c2ccc(Cl)s2)cc1CN1CCOC1=O [Example 98, 3-[[5-(5-Chloro-2-thienyl)-2-methyl-3-pyridyl]methyl]oxazolidin-2-one] | 187 |
| Cc1cc(-c2cnc(C)c(CN3CCOC3=O)c2)ccc1F [Example 76, 3-[[5-(4-Fluoro-3-methyl-phenyl)-2-methyl-3-pyridyl]methyl]oxazolidin-2-one] | 19 |
| COc1ncc(-c2ccc(Cl)c(C(F)F)c2)cc1CN1CCOC1=O [Example 115, 3-[[5-[4-Chloro-3-(difluoromethyl)phenyl]-2-methoxy-3-pyridyl]methyl]oxazolidin-2-one] | 10 |
| O=C1OC2(CCOCC2)CN1Cc1cncc(-c2ccc(F)c(C(F)F)c2)c1 [Example 42, 2-[[5-[3-(Difluoromethyl)-4-fluoro-phenyl]-3-pyridyl]methyl]-4,8-dioxa-2-azaspiro[4.5]decan-3-one] | 108 |
| Cc1ncc(-c2ccc(F)c(OC(F)F)c2)cc1CN1CC(C)OC1=O (racemic) [Example 80, (R/S)-3-[[5-[3-(Difluoromethoxy)-4-fluoro-phenyl]-2-methyl-3-pyridyl]methyl]-5-methyl-oxazolidin-2-one] | 22 |
| Cc1ncc(-c2ccc(F)cc2F)cc1CN1CCCOC1=O [Example 72, 3-[[5-(2,4-Difluorophenyl)-2-methyl-3-pyridyl]methyl]-1,3-oxazinan-2-one] | 2240 |
| CC(F)(F)c1ncc(-c2ccc(F)c(OC(F)F)c2)cc1CN1CCCOC1=O [Example 137, 3-[[2-(1,1-Difluoroethyl)-5-[3-(difluoromethoxy)-4-fluoro-phenyl]-3-pyridyl]methyl]-1,3-oxazinan-2-one] | 76 |
| O=C1OCc2ccccc2N1Cc1cncc(-c2ccc(F)c(C(F)F)c2)c1 [Example 24, 1-[[5-[3-(Difluoromethyl)-4-fluoro-phenyl]-3-pyridyl]methyl]-4H-3,1-benzoxazin-2-one] | 73 |
| Cc1cc(-c2cnc(C)c(CN3CCCOC3=O)c2)cc(F)c1F [Example 70, 3-[[5-(3,4-Difluoro-5-methyl-phenyl)-2-methyl-3-pyridyl]methyl]-1,3-oxazinan-2-one] | 13 |
| CC(F)(F)c1ncc(-c2ccc(F)c(C(F)F)c2)cc1CN1CC2(CCC2)OC1=O [Example 138, 6-[[2-(1,1-Difluoroethyl)-5-[3-(difluoromethyl)-4-fluoro-phenyl]-3-pyridyl]methyl]-8-oxa-6-azaspiro[3.4]octan-7-one] | 549 |
| CC(C)C1CN(Cc2cncc(-c3ccc(F)c(C(F)F)c3)c2)C(=O)O1 (racemic) [Example 35, (R/S)-3-[[5-[3-(Difluoromethyl)-4-fluoro-phenyl]-3-pyridyl]methyl]-5-isopropyl-oxazolidin-2-one] | 29 |
| Cc1ncc(-c2ccc(F)c(OC(F)F)c2)cc1CN1CC2(CC2)OC1=O [Example 84, 5-[[5-[3-(Difluoromethoxy)-4-fluoro-phenyl]-2-methyl-3-pyridyl]methyl]-7-oxa-5-azaspiro[2.4]heptan-6-one] | 52 |
